Test results taken from US7985573B2, “Targeted drug-carrying bacteriophages” (priority 2005, dated 2011).

Assays:
Staphylococcus aureus = test: Growth of Staphylococcus aureus treated with drug-carrying peptide-displaying phages; assay type: cell-based; conditions: free drug at concentration equivalent to that released by the phages
Description: FIG. 11. The effect of drug-carrying peptide-displaying phages on the growth of Staphylococcus aureus. (A) Growth curves of SA cells treated with SA-specific chloramphenicol prodrug-conjugated phage A12C (triangles), chloramphenicol prodrug-conjugated irrelevant phage F2b (circles), non conjugated SA-specific phage A12C as negative control (squares). (B) Growth curves of SA cells treated with SA-specific chloramphenicol prodrug-conjugated phage A12C (triangles) or various concentration of free chloramphenicol: 0.533 μg/ml (large filled circles), 1.0625 μg/ml (small open circles), 2.125 μg/ml (large open circles) or cells grown without any growth inhibitor (filled squares). Error bars represent the standard deviation of the data.
Phage A12C was chosen to assess the targeting effect of chloramphenicol-conjugated S. aureus-specific peptide-displaying phages. Conjugates were evaluated for their effect on bacterial growth as follows: an overnight bacterial culture was diluted ×100 in PBS. 1 ml of diluted bacteria was collected by centrifugation at 14,000 RPM and pellet re-suspended in 100 μl PBS. 10 μl of this bacterial suspension was mixed with 100 μl of 10^12 phages in ml PBS, and then incubated for 1 hr. […] Growth was recorded after dilution into the TSB medium by recording the optical density (OD) at 600 nm.

serum esterases = test: Chloramphenicol release from its linker in horse serum, reverse phase HPLC
Description: CAM release rate from its linker in 99% horse serum. (A) Reverse phase HPLC was used to measure the breakdown rate following the incubation for the indicated time periods in 99% horse serum at 37° C. Free chloramphenicol (marked by black arrows) is eluted 9 min after sample loading while intact chloramphenicol-linker adduct (marked by gray arrows) is eluted 16 min after sample loading. (B) release rate of chloramphenicol from its linker in 10% horse serum (gray bars) or without serum (in PBS, black bars) was evaluated by HPLC as in A, the % released chloramphenicol was calculated by dividing the area of the 9 min peak by the total peak area of all relevant peaks.
To test the CAM release rate, a reverse phase HPLC analysis was done based on the fact that elution time of free CAM is about 9 min while the CAM-linker adduct is eluted about 16 min after sample injection into a reverse phase C18 column. This was done as follows: reverse phase HPLC was used to measure the chloramphenicol release rate following the incubation of chloramphenicol-prodrug in 10% or in 99% horse serum, or without serum, all in PBS. […] The % of released chloramphenicol was calculated by dividing the area of the 9 min peak by the total peak area of all relevant peaks and multiplying by 100.

susceptible bacteria = test: Growth inhibition of susceptible bacteria by the chloramphenicol-prodrug; assay type: cell-based; conditions: concentrations up to ×100 of the free chloramphenicol IC50
[1] = Stability of the CAM-linker adduct without serum (pH, PBS), HPLC; assay type: physicochemical
Description: To test the CAM release rate, a reverse phase HPLC analysis was done based on the fact that elution time of free CAM is about 9 min while the CAM-linker adduct is eluted about 16 min after sample injection into a reverse phase C18 column. This was done as follows: reverse phase HPLC was used to measure the chloramphenicol release rate following the incubation of chloramphenicol-prodrug in 10% or in 99% horse serum, or without serum, all in PBS. A reverse phase C-18 column was used on a LabChrom L7400 MERCK HITACHI machine with acetonitrile:water (30:70) in the mobile phase at 1 ml/min flow rate. Under these conditions, free chloramphenicol is eluted 9 min after sample loading while the intact chloramphenicol-prodrug is eluted 16 min after sample loading. The % of released chloramphenicol was calculated by dividing the area of the 9 min peak by the total peak area of all relevant peaks and multiplying by 100.

[2] = Solubilization of FITC by hygromycin; assay type: physicochemical
Description: For conjugating a hydrophobic cargo, the drug, activated for amine conjugation (in the following experiments, NHS and isothiocynate chemistries were used) was initially reacted in an aqueous solution (NaHCO3 0.1 M pH=8.5) of an aminoglycoside at a concentration lower than the number of available amine groups (to leave one amine available for the subsequent conjugation to the carrier). The reaction was stirred gently for overnight at room temperature. Then the solution was titrated with HCl and Na-citrate buffer was added to final concentration of 0.1 M (pH=5.5). This solution was brought to a final molar concentration of 0.75 M NaCl and finally the carrier bacteriophages was added followed by immediate addition of EDC at concentration of ×100 molar excess over the target carboxyl side chains of the targeted drug carrier. This reaction was stirred gently for 1-2 hours at room temperature, followed by exhaustive dialysis against PBS/0.3 M NaCl. This process is illustrated in FIG. 13.
EDC mediated conjugation of aminoglycosides was first accomplished by using hygromycin as a model linker. hygromycin contains only two primary amines, one for drug conjugation and the other for conjugation to a carrier. Hygromycin was initially conjugated to FITC as described above.

Compound: O=C(N[C@H](CO)[C@H](O)c1ccc([N+](=O)[O-])cc1)C(Cl)Cl [chloramphenicol]
- growth of the SA bacteria (OD 600 nm) (Staphylococcus aureus): did not retard

Compound: O=C(CCCC(=O)ON1C(=O)CCC1=O)OC[C@@H](NC(=O)C(Cl)Cl)[C@H](O)c1ccc([N+](=O)[O-])cc1 [chloramphenicol-prodrug]
- release rate kinetics (serum esterases; 10% horse serum, monitored over 48 hours, compared with 99% serum after correcting for concentration): same linear kinetics
- CAM released from the linker (serum esterases; 1 hr incubation in 99% horse serum at 37° C., linear kinetics): about 15%
- inhibition of the growth of susceptible bacteria (susceptible bacteria): did not inhibit the growth
- spontaneous hydrolysis rate of the ester bond ([1]; PBS alone, entire 48 h period): less than 5%
- stability of CAM-linker adduct ([1]; pH values between 6-8): stable

Compound: O=C1OC2(c3ccc(O)cc3Oc3cc(O)ccc32)c2ccc(N=C=S)cc21 [FITC]
- solubility in aqueous buffer ([2]; FITC stock solution (38.9 mg/ml in DMSO) added to equal volume of buffer without aminoglycosides): immediate formation of precipitate
- solubility in aqueous buffer ([2]; conjugated to hygromycin, molar ratio 10 hygromycin:1 FITC): immediate solubilization
